Entries after “also recorded” stand apart in the source; their conditions may differ.
Key:
Assay type in all cases: cell-based, human
[1] = tested on: PKCα (PRKCA); assay: RNA-seq of PKC isoform mRNA in MCF10A cells treated with PMA; details: PMA vs vehicle
Source text: PKCα mRNA levels were unchanged by PMA treatment, consistent with a mechanism by which PMA signals through pre-existing PKCα to ultimately stimulate APOBEC3B transcription (FIG. 2G). PKCα expression was depleted using three independent shRNA-encoding lentiviral constructs. […] Immunoblots confirmed PKCα knockdown and proportional reductions in APOBEC3B (FIG. 21). Altogether, the pharmacologic and genetic approaches provide a strong case for PKCα as the predominant PKC isoform driving PMA-mediated upregulation of APOBEC3B.
(§1) Two sets of MCF10A cells in duplicate were treated every eight hours with media supplemented with PMA or DMSO for 48 hours. At 48 hours, RNA was extracted using an RNeasy Mini Kit (Qiagen, Hilden, Germany). Total RNA was submitted to the University of Minnesota Genomics Center for sequencing on the Illumina HiSeq 2000 platform. Raw reads were analyzed using both DESeq2 (Love et al., 2014, Genome Biol. 15:550) and the Tuxedo suite (Trapnell et al., 2012, Nat Protoc.7:562-578) to identify changes in mRNA expression in PMA treated versus untreated cells.

[2] = tested on: RELA, NKB1, RELB and NFKB2; assay: RNA-seq of NFκB subunit mRNA in MCF10A cells treated with PMA; details: PMA vs vehicle
Method: Canonical signaling is known to require IKKβ, whereas non-canonical NFκB signaling is strictly dependent on IKKα-catalyzed phosphorylation of p100. To distinguish between these pathways, MCF10A cells were pretreated with a titration of TPCA-1 concentrations spanning the IC50 values of both proteins, and then PMA was used to induce APOBEC3B upregulation. […] As an additional control, TNFα, which is regulated by the canonical pathway, was analyzed.
as §1

[3] = tested on: APOBEC3B promoter region; assay: chromatin immunoprecipitation (ChIP) at the APOBEC3B promoter after PMA; details: MCF10A cells, PMA 25 ng/mL two hours, ChIP-qPCR
Method: We next performed a series of chromatin immunoprecipitation (ChIP) experiments to determine whether the canonical or noncanonical NFκB pathway is responsible for upregulating APOBEC3B. Primer sets were designed for each of the predicted NFκB binding sites near the APOBEC3B transcriptional start site, as well as a control set in the promoter region of NFKIB (FIG. 3E). ChIP was performed for RELA, RELB, RNA POL II (positive control), and isotype matched IgG (negative control) RELA, RELB, and RNA POL II were all bound to the NFKIB promoter following PMA treatment (FIG. 3F and FIG. 3G). In addition, we found RNA POL II strongly bound to the APOBEC3B gene near the transcriptional start site (FIG. 3F and FIG. 3G). We also found RELB bound both near the transcriptional start site and at sites 4 and 5, which are located in intron 2 and too close together to be distinguished by this procedure. Binding also may occur at lower levels at site 3 in intron 1, but the IgG signal was too high to distinguish background from actual binding. These ChIP data strongly implicate the noncanonical NFκB pathway, specifically RELB (and not RELA), in directly inducing APOBEC3B transcription in response to PMA activation of PKC.
MCF10A cells were treated with either DMSO or 25 ng/mL PMA for two hours. […]

[4] = tested on: APOBEC3B; assay: single-stranded DNA cytosine deaminase activity of whole cell extracts after PMA; details: MCF10A cell extracts
Method: (§2) APOBEC3B was induced with as little as 1 ng/mL PMA, and its induction was dose responsive and near maximal at 25 ng/mL PMA (FIG. 1B, histogram). APOBEC3B mRNA levels correlated with a rise in steady-state protein levels as measured by immunoblotting with a rabbit anti-APOBEC3B monoclonal antibody (described in U.S. Provisional Patent Application No. 62/186,109. filed Jun. 29, 2015) and with enzymatic activity as measured by a gel-based single-stranded DNA cytosine deamination assay (FIG. 1B). […] APOBEC3B protein and activity levels lagged shortly behind mRNA levels and persisted through the duration of the time course (FIG. 1C, immunoblot and polyacrylamide gel). APOBEC3B upregulation may be a direct result of signal transduction as the kinetics of upregulation were not affected by simultaneously treating cells with the protein translation inhibitor cyclohexamide (FIG. 1D).
Deaminase activity assays were performed as previously reported (Vieira et al., 2014, mBio 5(6):e02234-14). In short, 4 pmol of a fluorescently labeled oligo with a single target cytosine (5 -[…]-fluorescein, SEQ ID NO:2) was treated with cell extract containing 0.025 U/rxn UDG (New England BioLabs, Inc., Ipswich, Mass.), UDG buffer, and 1.75 U/rxn RNase A (Qiagen, Hilden, Germany) for two hours. […] Gels were scanned using a FujiFilm Image Reader FLA-7000.

[5] = tested on: APOBEC3B; assay: PMA induction of APOBEC3B mRNA in MCF10A cells (RT-qPCR)
Method: (§3) A panel of immortalized normal human epithelial cells lines and breast cancer cell lines was treated with PMA or equal amounts of DMSO as a negative control, and previously validated reverse transcription quantitative PCR (RT-qPCR) assays were used to measure mRNA levels of all eleven human APOBEC family members. APOBEC3B mRNA was induced specifically by PMA treatment of several lines including the immortalized normal breast epithelial cell line MCF10A (FIG. 1A and FIG. 6). Under standard cell culture conditions, MCF10A expresses low levels of APOBEC3B and APOBEC3F, even lower levels of APOBEC3G and APOBEC3H, high levels of APOBEC3C, and undetectable levels of all other APOBEC family members.
as §2
(§4) For induction experiments, 2.5×10^5 cells were plated in a 6-well plate 1 day prior to drug treatment. PMA was then added to the media and incubated at 37° C. with 5% CO2 for six hours unless otherwise indicated. Cells were harvested, RNA was extracted, and RT-qPCR was performed as previously reported (Refsland et al. 2010, Nucleic Acids Res 38:4274-4284). For experiments utilizing inhibitors, cells were pretreated with inhibitors 30 minutes prior to PMA induction (25 ng/mL). PMA (Thermo Fisher Scientific, Inc., Waltham, Mass.), cyclohexamide (Acros Organics, Thermo Fisher Scientific, Inc., Waltham, Mass.), Gö6983 (Cayman Chemical co., Ann Arbor, Mich.), LY294002 (EMD Chemicals, Merck KGaA, Darmstadt, Germany), U0126 (EMD Chemicals, Merck KGaA, Darmstadt, Germany), AEB071 (Medchemexpress, Monmouth Junction, N.J.), Gö6976 (Enzo Life Sciences, Inc., Farmingdale, N.Y.), BAY 11-7082 (R&D Systems, INc., Minneapolis, Minn.), and MG132 (Thermo Fisher Scientific, Inc., Waltham, Mass.) were stored as recommended. NIKi/Compound 31 was synthesized as described (Li et al., 2013, Bioorganic & Medicinal Chemistry Letters 23:1238-1244).

[6] = tested on: APOBEC family members; assay: mRNA levels of other APOBEC family members after PMA (RT-qPCR); details: MCF10A cells, six hours
Method: as §3
For induction experiments, 2.5×10^5 cells were plated in a 6-well plate 1 day prior to drug treatment. PMA was then added to the media and incubated at 37° C. with 5% CO2 for six hours unless otherwise indicated. Cells were harvested, RNA was extracted, and RT-qPCR was performed as previously reported (Refsland et al. 2010, Nucleic Acids Res 38:4274-4284). For experiments utilizing inhibitors, cells were pretreated with inhibitors 30 minutes prior to PMA induction (25 ng/mL). […]

[7] = tested on: APOBEC3B; assay: APOBEC3B protein levels by immunoblotting after PMA; details: MCF10A cells
Method: as §2
(§5) The development and validation of the rabbit monoclonal antibody (mAb) against APOBEC3B is as described elsewhere (U.S. Provisional Patent Application No. 62/186,109, filed Jun. 29, 2015). The mAb used (referred to as 5210-87-13) effectively binds endogenous APOBEC3B in a variety of assays. The anti-tubulin antibody was obtained from Covance Inc., Princeton, N.J.

[8] = tested on: APOBEC3B; assay: inhibitor pretreatment before PMA-induced APOBEC3B upregulation in MCF10A cells (RT-qPCR)
Method: PMA is a well-known agonist of PKC, but it also affects other cellular processes. To determine whether APOBEC3B induction by PMA occurs through PKC signal transduction or an alternative mechanism, we leveraged a panel of existing PKC inhibitors that each vary with respect to class selectivity. MCF10A cells were pre-treated for 30 minutes with varying concentrations of the pan-PKC inhibitor Gö6983 (Gschwendt et al., FEBS Lett. 392:77-80, 1996) and then treated for six hours with PMA (25 ng/mL). […] As additional controls, MCF10A cells were pretreated in parallel with the phosphoinositol 3 kinase (PI3K) inhibitor, LY294002, and the mitogen-activated protein kinase kinase (MEK) inhibitor, U0126, prior to PMA induction (FIGS. 2B and 2C).
as §4

[9] = tested on: cancer cell lines; assay: cell cycle and cell viability of cancer cell lines treated with AEB071; details: 10 μM, 48 hours, data not shown
[10] = tested on: APOBEC3B; assay: endogenous APOBEC3B protein in cancer cell lines treated with AEB071 (immunoblot); details: 10 μM, 48 hours
Method: (§6) Each line was treated for 48 hours with 10 μM AEB071, and then APOBEC3B mRNA and protein levels were quantified by RT-qPCR and immunoblotting. […] This is important since higher concentrations of AEB071 are known to cause cell cycle perturbations and apoptosis in certain cell types.
as §5

[11] = tested on: APOBEC3B; assay: endogenous APOBEC3B mRNA in cancer cell lines treated with AEB071 (RT-qPCR); details: 10 μM, 48 hours
Method: FIG. 4. The PKC-NFκB pathway drives endogenous APOBEC3B expression in cancer cells. (A) APOBEC3B mRNA levels in representative breast, ovarian, and head/neck cancer cell lines. mRNA expression is reported as the mean of three independent RT-qPCR reactions normalized to TBP (error bars report SD from triplicate assays). (B) Representative PKC inhibitor treated cancer cell line experiment. Each line was treated with AEB071 (10 μM) or vehicle control for 48 hours prior to analysis. The histogram reports APOBEC3B mRNA levels normalized to the vehicle treated control for each line.
Four breast cancer cell lines, four ovarian cancer cell lines, four bladder cancer cell lines, and four head/neck cancer cell lines were analyzed to determine whether the constitutively high levels of endogenous APOBEC3B observed in many human cancer cell lines occurs through the PKC pathway. The selected cell lines expressed a 10-fold range of endogenous APOBEC3B mRNA levels (FIG. 4A).
as §6

With `CCCCCCCCCCCCCC(=O)O[C@@H]1[C@@H](C)[C@@]2(O)[C@@H](C=C(CO)C[C@]3(O)C(=O)C(C)=C[C@@H]23)[C@@H]2C(C)(C)[C@]12OC(C)=O` [PMA] the “PKCα mRNA levels” value [1] was “unchanged”, the “mRNA levels of NFκB components RELA, NKB1, RELB, NFKB2” value [2] was “unaffected” and the “recruitment of RELB and p105/p52 to the APOBEC3B promoter region” value [3] was “specifically and robustly recruited”. For the same molecule, the “APOBEC3B activity levels (DNA cytosine deaminase)” value [4] was “dose-responsive increases”, the “time after PMA treatment at which maximal APOBEC3B mRNA levels were observed” value ([5]; PMA 25 ng/ml) was “by three hours post-treatment” and the “time after PMA treatment at which significant APOBEC3B mRNA induction was detected” value ([5]; PMA 25 ng/ml) was 30 min. The “PMA concentration at which APOBEC3B induction was near maximal” value ([5]; six hours) was 25 ng/mL, the “lowest PMA concentration that induced APOBEC3B” value ([5]; six hours) was 1 ng/mL and the “changes in the expression levels of other APOBEC family members” value [6] was “no detectable changes”. For the same molecule, the APOBEC3B protein levels [7] was “dose-responsive increases”.
With `CN1CCN(c2nc(C3=C(c4c[nH]c5ccccc45)C(=O)NC3=O)c3ccccc3n2)CC1` [AEB071, sotrastaurin] the “potency relative to Gö6983, BIM-1, or Gö6983 in suppressing PMA-induced APOBEC3B” value [8] was “approximately 10 fold”, the “suppression of PMA-induced APOBEC3B mRNA induction” value ([8]; 30-minute pretreatment with inhibitor, then PMA 25 ng/mL six hours) was “inhibited; also recorded: clear dose dependent response” and the “concentration that caused complete suppression of APOBEC3B expression” value ([8]; pretreatment, PMA induced) was 500 nM. The “effects on the cell cycle or cell viability” value [9] was “No effects on the cell cycle or cell viability”, the “changes of APOBEC3B protein levels” value [10] was “largely mirrored the mRNA results” and the “cell lines in which APOBEC3B mRNA levels were reduced by more than half” value ([11]; 16 breast, ovarian, bladder, head/neck cancer cell lines) was 7/16. For the same molecule, the “APOBEC3B mRNA levels” value ([11]; HCC1806 breast cancer cell line) was “reduced by more than half”, the “APOBEC3B mRNA levels” value ([11]; JSQ3 head/neck line) was “reduced by more than half” and the “APOBEC3B mRNA levels” value ([11]; MDA-MB-453 breast cancer cell line) was “reduced by more than half”. For the same molecule, the “APOBEC3B mRNA levels” value ([11]; MDA-MB-468 breast cancer cell line) was “reduced by more than half”, the “APOBEC3B mRNA levels” value ([11]; OVCAR5 ovarian cancer cell line) was “reduced by more than half” and the “APOBEC3B mRNA levels” value ([11]; SQ-20B head/neck line) was “reduced by more than half”. For the same molecule, the “APOBEC3B mRNA levels” value ([11]; TR146 head/neck line) was “reduced by more than half”.
